Reference: patent US20120196342A1, “Industrial Applications of A Novel Aldo/Keto Reductase Of Zymomonas Mobilis” (priority 2011, published 2012)
Numbering of substitutions follows the chain as printed. Numbers in names are those of the source. Read-outs that look alike come from different tables or passages of the source. Blank lines part the entries; values can stand above or below the molecule they belong to.

Columns and labels:
recombinant ZMO0976 = molecular target: T1, recombinant ZMO0976 (Zymomonas mobilis, UniProt Q5NNW0); experiment: Substrate and cofactor profile and Michaelis-Menten kinetics of recombinant ZMO0976; assay type: biochemical, Z. mobilis
T1 sequence (Q5NNW0 1-340): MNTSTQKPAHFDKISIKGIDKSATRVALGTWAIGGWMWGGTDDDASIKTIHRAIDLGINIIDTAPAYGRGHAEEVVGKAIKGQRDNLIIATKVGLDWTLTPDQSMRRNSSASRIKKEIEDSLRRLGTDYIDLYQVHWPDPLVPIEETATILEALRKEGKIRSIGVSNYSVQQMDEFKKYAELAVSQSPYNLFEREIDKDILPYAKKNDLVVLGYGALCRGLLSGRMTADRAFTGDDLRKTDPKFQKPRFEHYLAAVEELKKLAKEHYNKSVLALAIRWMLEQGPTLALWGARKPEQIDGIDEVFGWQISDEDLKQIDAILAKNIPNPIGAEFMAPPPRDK
Experimental: (§1) E. coli cells were prepared for enzymatic assays using the procedure described in, for example, Akinterinwa, and Cirino, “Heterologous expression of D-xylulokinase from Pichia stipitis enables high levels of xylitol production by engineered Escherichia coli growing on xylose,” Metabolic Engineering 11(1): pp. 48-55. Briefly, cells were harvested by centrifugation at 5,000 g at 4° C. for 30 min. Cells were washed once with extraction buffer [10 mM Tris-HCl pH 7.5, 5 mM MgCl2, 1 mM dithothreitol (DTT) and 1 mM phenylmethylsulfonyl fluoride (PMSF) (Sigma-Aldrich, St. Louis, Mo.)]. Washed cell pellets were stored at −20° C. until use. Cell pellets were resuspended to an OD of 50 in equilibration buffer (50 mM Na2HPO4, 300 mM NaCl and 10 mM imidazole at pH 8 (Sigma-Aldrich, St. Louis, Mo.)) supplemented with 1 mM DTT and 1 mM PMSF, and sonicated (8 cycles of 10 s with 30 s cooling period). Cell debris was discarded after centrifugation at 16,000 g for 20 min at 4° C. Supernatant was used as cell-free extract (CFE) for enzymatic assays. Bradford Assay was used for estimation of protein concentration in the extract. His-tagged protein in the cell-free extract was purified at 4° C. using HIS-Select® HF Nickel Affinity Gel (Sigma-Aldrich, St. Louis, Mo.), which employs immobilized metal-ion affinity chromatography (IMAC). Manufacturer's protocol for large scale purification was followed. Briefly, 10 ml of cell-free extract was added to 1 ml of affinity gel in equilibration buffer. After overnight incubation, the gel was washed five times with equilibration buffer. The bound his-tagged protein was then eluted using 2 ml of elution buffer (50 mM Na2HPO4, 300 mM NaCl and 250 mM imidazole at pH 8). Imidazole was removed by overnight dialysis at 4° C. using extraction buffer as the dialysis solution.
(§2) Cell-free extract for Z. mobilis was prepared as above except that extraction buffer was used for sonication and after which, cell debris were spun down at higher centrifugal force (53,300 g). All enzymatic assay reactions were carried out in a final volume of 200 μl on a microplate. NAD(P)H (Sigma-Aldrich, St. Louis, Mo.) absorbance was measured at 340 nm using Spectramax M5 Plus spectrophotometer (Molecular devices, Sunnyvale, Calif.). Xylose reductase was assayed in McIlvaine buffer at pH 7.2 (prepared by adding 16.5 ml of 0.2 M Na2HPO4 to 3.5 ml of 0.1 M citric acid (Sigma-Aldrich, St. Louis, Mo.)) containing 0.35 mM NADPH or NADH (as indicated) and an appropriate volume of sample (cell-free extract or purified protein) according to Viikari, L. and M. Korhola (1986), “Fructose metabolism in Zymomonas mobilis,” Applied Microbiology and Biotechnology 24(6): 471-476.
(§3) Xylose concentration in the assay mixture is indicated in the text. For measuring the catalytic activity of xylose reductase towards other substrates, similar assay conditions were used. Km and Vmax were determined by varying the substrate concentrations in the assay mixture and fitting the data to Lineweaver-Burk equation: 1/v=(Km/Vmax) […]+1/Vmax. Xylitol concentration was determined enzymatically. The reaction was carried out with a total volume of 200 μl in 42 mM Tris-HCl buffer at pH 8.5, 5 mM NAD, 10 mM MgSO4 (Sigma-Aldrich, St. Louis, Mo.), 4 U/ml sorbitol dehydrogenase (Roche Diagnostics, Indianapolis, Ind.) and 10 μl of sample. Xylitol concentration was estimated based on the amount of NADH produced by xylitol containing samples compared to that produced by xylitol standards. SDS-PAGE and Coommassie blue staining were used to confirm the expression of ZMO0976 and mZMO0976 proteins. 15 μg of cell-free extract protein and 1 μg of purified protein were loaded on a 12% Tris-HCl gel (Bio-Rad, Hercules, Calif.). Cell growth was determined by measuring optical density (OD) at 600 nm using spectrophotometer (Beckman Coulter DU 530, Brea, Calif.).

Z. mobilis = conditions: cited from earlier work
[1] = NADPH-dependent xylose reductase (XR) activity of recombinant ZMO0976/mZMO0976, E. coli UT5600 cell-free extract and purified protein; assay type: biochemical; conditions: for XR activities of the purified proteins: His-tag purified protein, NADPH; for Xylose reductase activity: NADPH as cofactor, purified protein or cell-free extract (CFE) as named in label
Experimental: as §1, §2
as §3, with “Xylitol concentration was estimated based on the amount of NADH produced by xylitol containing samples compared to that produced by xylitol standards. SDS-PAGE and Coommassie blue staining were used to confirm the expression of ZMO0976 and mZMO0976 proteins. 15 μg of cell-free extract protein and 1 μg of purified protein were loaded on a 12% Tris-HCl gel (Bio-Rad, Hercules, Calif.).” left out

[2] = Reductase activity of purified ZMO0976/mZMO0976 towards furfural; assay type: biochemical; conditions: for Specific XR activity, Furfural (10 mM): purified protein, no unit in table, in mU/mg protein
Experimental: (§4) E. coli cells were prepared for enzymatic assays using the procedure described in, for example, Akinterinwa, and Cirino, “Heterologous expression of D-xylulokinase from Pichia stipitis enables high levels of xylitol production by engineered Escherichia coli growing on xylose,” Metabolic Engineering 11(1): pp. 48-55. Briefly, cells were harvested by centrifugation at 5,000 g at 4° C. for 30 min. Cells were washed once with extraction buffer [10 mM Tris-HCl pH 7.5, 5 mM MgCl2, 1 mM dithothreitol (DTT) and 1 mM phenylmethylsulfonyl fluoride (PMSF) (Sigma-Aldrich, St. Louis, Mo.)]. Washed cell pellets were stored at −20° C. until use. Cell pellets were resuspended to an OD of 50 in equilibration buffer (50 mM Na2HPO4, 300 mM NaCl and 10 mM imidazole at pH 8 (Sigma-Aldrich, St. Louis, Mo.)) supplemented with 1 mM DTT and 1 mM PMSF, and sonicated (8 cycles of 10 s with 30 s cooling period). Cell debris was discarded after centrifugation at 16,000 g for 20 min at 4° C. Supernatant was used as cell-free extract (CFE) for enzymatic assays. Bradford Assay was used for estimation of protein concentration in the extract. His-tagged protein in the cell-free extract was purified at 4° C. using HIS-Select® HF Nickel Affinity Gel (Sigma-Aldrich, St. Louis, Mo.), which employs immobilized metal-ion affinity chromatography (IMAC). […]
(§5) Cell-free extract for Z. mobilis was prepared as above except that extraction buffer was used for sonication and after which, cell debris were spun down at higher centrifugal force (53,300 g). […] NAD(P)H (Sigma-Aldrich, St. Louis, Mo.) absorbance was measured at 340 nm using Spectramax M5 Plus spectrophotometer (Molecular devices, Sunnyvale, Calif.). […]
(§6) Xylose concentration in the assay mixture is indicated in the text. […] Km and Vmax were determined by varying the substrate concentrations in the assay mixture and fitting the data to Lineweaver-Burk equation: 1/v=(Km/Vmax) […]+1/Vmax. Xylitol concentration was determined enzymatically. […] Cell growth was determined by measuring optical density (OD) at 600 nm using spectrophotometer (Beckman Coulter DU 530, Brea, Calif.).

[3] = Reductase activity of purified ZMO0976/mZMO0976 towards benzaldehyde; assay type: biochemical; conditions: for Specific XR activity, Benzaldehyde (2 mM): purified protein, no unit in table, in mU/mg protein
Experimental: as §4, §5, §6

[4] = Reductase activity of purified ZMO0976/mZMO0976 towards acetaldehyde; assay type: biochemical; conditions: for Specific XR activity, Acetaldehyde (520 mM): purified protein, no unit in table, in mU/mg protein
Experimental: as §4, §5, §6

[5] = substrate 260 mM; NADPH cofactor; benzaldehyde = 1
[6] = 0.35 mM NADPH; Lineweaver-Burk fit

Molecule: CC=O [Acetaldehyde]
Activity of ZMO0976 towards the substrate (in words) (recombinant ZMO0976; NADPH as cofactor): showed activity
Fold reduction in ZMO0976 activity with NADH as cofactor compared to NADPH (recombinant ZMO0976; substrate 260 mM; 0.35 mM of either cofactor): 53
Relative activity (recombinant ZMO0976; [5]): 0.62

Molecule: O=Cc1ccccc1 [Benzaldehyde]
Affinity of ZMO0976 compared with xylose (in words) (recombinant ZMO0976): one to two orders of magnitude higher
Km, fold lower than xylose (recombinant ZMO0976): about 150 fold
Apparent Vmax (recombinant ZMO0976; [6]): 7200 ± 200 mU/mg protein
Km (recombinant ZMO0976; 0.35 mM NADPH; Lineweaver-Burk fit; read-out: Apparent Km): 1770 µM
Activity of ZMO0976 towards the substrate (in words) (recombinant ZMO0976; NADPH as cofactor): showed activity
Relative activity (recombinant ZMO0976; substrate 2 mM; NADPH cofactor; benzaldehyde = 1): 1

Molecule: O=C(CO)[C@@H](O)[C@H](O)[C@H](O)CO [Fructose]
Activity of ZMO0976 towards the substrate (in words) (recombinant ZMO0976; NADPH as cofactor): negligible activity
Relative activity (recombinant ZMO0976; [5]): 0

Molecule: O=Cc1ccco1 [Furfural]
Affinity of ZMO0976 compared with xylose (in words) (recombinant ZMO0976): one to two orders of magnitude higher
Apparent Vmax (recombinant ZMO0976; [6]): 5000 ± 1300 mU/mg protein
Activity of ZMO0976 towards the substrate (in words) (recombinant ZMO0976; NADPH as cofactor): showed activity
Km (recombinant ZMO0976; read-out: Apparent Km; 0.35 mM NADPH; Lineweaver-Burk fit): 4150 µM
Relative activity (recombinant ZMO0976; substrate 5.2 mM; NADPH cofactor; benzaldehyde = 1): 0.81
Fold reduction in ZMO0976 activity with NADH as cofactor compared to NADPH (recombinant ZMO0976; substrate 10 mM; 0.35 mM of either cofactor): 10
Concentration at which growth is completely inhibited (Z. mobilis): 52 mM
Concentration that reduces the growth rate of Z. mobilis by 25% (Z. mobilis): 7.3 mM

Molecule: O=Cc1ccc(CO)o1 [HMF, 5-hydroxymethylfurfural]
Activity of ZMO0976 towards the substrate (in words) (recombinant ZMO0976; NADPH as cofactor): showed activity
Relative activity (recombinant ZMO0976; substrate 10 mM; NADPH cofactor; benzaldehyde = 1): 0.11
Concentration at which growth is completely inhibited (Z. mobilis): 63 mM
Concentration that reduces the growth rate of Z. mobilis by 25% (Z. mobilis): 9.5 mM

Specific XR activity, Furfural (10 mM) [2]: 5470 ± 60
Specific XR activity, Benzaldehyde (2 mM) [3]: 4030 ± 250
Specific XR activity, Acetaldehyde (520 mM) [4]: 2500 ± 400
B1: ZMO0976: 341 amino acid aldo/keto reductase of Z. mobilis ZM4, His-tagged, expressed in E. coli UT5600 (protein)
chain: T1 sequence (Q5NNW0 1-340)
modifications: His tag; sequence of aldo/keto reductase ZMO0976 (see Fig. 4A)
notes: 341 amino acid aldo/keto reductase of Z. mobilis ZM4, His-tagged, expressed in E. coli UT5600
XR activities of the purified proteins [1]: 3400 mU/mg
Xylose reductase activity ([1]; listed as Purified recombinant ZMO0976): 3400 ± 200 mU/mg protein
Xylose reductase activity ([1]; listed as ZM00976): 3400±200 mU/mg protein
furfural reductase activity [2]: 5470±60 mU/mg protein
benzaldehyde reductase activity [3]: 4030±250 mU/mg protein
acetaldehyde reductase activity [4]: 2500±400 mU/mg protein

Specific XR activity, Furfural (10 mM) [2]: 180 ± 30
Specific XR activity, Benzaldehyde (2 mM) [3]: 40 ± 10
Specific XR activity, Acetaldehyde (520 mM) [4]: 170 ± 30
B2: mZMO0976: mutated ZMO0976 from adapted strain A3, single arginine to cysteine mutation at residue 292 (C874T) (protein)
chain: T1 sequence (Q5NNW0 1-340) with R292C
modifications: His tag; sequence of aldo/keto reductase mZMO0976 (see Fig. 4B)
XR activities of the purified proteins [1]: 140 mU/mg
Xylose reductase activity [1]: 140 ± 50 mU/mg protein
